Measurements from paper PMC11025159 (Journal of Translational Medicine, 2024).
Where “and” joins values, the source holds several entries; their conditions need not be identical. Equal entries are not always repeated.

Tests used:
[1] = Body weight of athymic nude mice during topical treatment; format: in vivo, athymic nude mice (NU/J Foxn1nu); conditions: individual mice
Experimental: . The groups are as follows: Group 1-Control (untreated), Group 2-Vehicle control, Group 3-tofacitinib citrate (0.8 mg/Kg), Group 4-tofacitinib citrate (0.08 mg/Kg), Group 5-MJ04 (0.08 mg/Kg), Group 6-MJ04 (0.04 mg/Kg), Group 7-MJ04 (0.016 mg/Kg), Group 8-baricitinib (0.1 mg/Kg), Group 9-baricitinib (0.04 mg/Kg), and Group 10-baricitinib (0.02 mg/Kg). At the end of the experiment, skin samples were collected and preserved in 10% neutral buffered formalin for tissue sectioning and staining using haematoxylin and eosin (H&E). […]

[2] = target: T1, GSK-3-β (Homo sapiens, UniProt P49841); assay: Cell-free kinase assay GSK-3-β; format: biochemical
T1 construct: purchased Promega Corporation V1991
Experimental: (§1) The cell-free kinase assays of small molecules were determined by following the manufacturer-recommended protocols. Different concentrations in triplicate were used to determine the IC50 value of the hit molecules (active molecules). For data analysis, GraphPad Prism V9.5 Software and a sigmoidal dose–response (variable slope) equation were used. Each value represents an average of three replicates per concentration.

[3] = target: T2, EGFR (Homo sapiens, UniProt P00533); assay: Cell-free kinase assay EGFR; format: biochemical
T2 construct: purchased Promega Corporation V3831
Experimental: as §1

[4] = system: HEK-293; assay: MTT cell viability assay HEK-293; format: cell-based, human
Experimental: (§2) Cell viability was evaluated using an MTT colorimetric assay. Cells were seeded (10^5 cells/mL) in 96-well plates and allowed to grow overnight at 37 ℃ with 5% CO2 in a cell-culture incubator. On the following day, the cells were treated with small molecules at different concentrations (0.2–10 micro-molar) or vehicle (DMSO). Cells were then further incubated for 48 h.

[5] = Stability of the formulation used for in vivo studies (HPLC); format: physicochemical; conditions: ethanol / ethanol:PEG-300, room temperature, 0-48 h
Experimental: The stability study of the lead compound (MJ04) was performed using HPLC analysis wherein the samples were studied after different time intervals. The 0.6 mg of MJ04 was taken and dissolved in 1 mL of ethanol to achieve 0.6 mg/mL concentration. Out of this, 500 µL was further diluted to 0.3 mg/mL by adding 500 µL ethanol to it (Ethanol sample). To remaining 500 µL, we added 500 µL PEG-300 to achieve final concentration of 0.3 mg /mL (Ethanol:PEG sample). HPLC of these samples was performed at various time points (0 h, 12 h, 24 h and 48 h) upon incubating at room temperature. The HPLC of samples was performed by RP-18 end capped; […], 4.6 × 250 mm. The mobile phase containing water (30%) and acetonitrile (70%) was used at the flow rate of 1 mL/min at a column temperature of 27 °C at 210 nm wavelength. A volume of 5 µL of sample was injected and the total run time of the assay was 30 min using the isocratic technique in the HPLC system.

[6] = Acute dermal toxicity / irritation in C57BL/6 mice; format: in vivo
Experimental: The acute dermal toxicity was conducted in Wistar rats to determine the dermal LD50 of MJ04 adhering to Organization for Economic Cooperation and Development (OECD) test guideline 402. A single dose of MJ04 covering 10% of body surface area was administered using a fixed dose procedure from 200 mg/kg to 2000 mg/kg with two animals per dose. The animals were monitored for mortality, morbidity, and clinical signs of toxicity at first 30 min, 6 h, 24 h, and thereafter for 14 days. Parameters like body weight, serum biochemistry (liver function test, kidney function test, and lipid Profile), and histopathology were analysed. The acute dermal irritation test was conducted in C57BL/6J mice at a single dose of 0.04 mg/kg and 0.08 mg/kg of MJ04.
Signal dose acute dermal toxicity tests were conducted in C57BL/6 mice. The tests included limited dosages of a single dose at 0.04 mg/kg and 0.08 mg/kg of MJ04. […] Digital photographs were taken at various time points (0 min, 5 min, 1 h, 4 h, 24 h, and 14 days) from representative areas using a Nikon digital camera (n = 5 mice).

[7] = target: T3, hERG channels (Homo sapiens, UniProt Q12809); assay: hERG channel assay, whole cell patch clamp; format: cell-based
T3 construct: host or cells: HEK293

[8] = target: T4, IGF-1R (Homo sapiens, UniProt P08069); assay: Cell-free kinase assay IGF-1R; format: biochemical
T4 construct: purchased Promega Corporation V3581
Experimental: as §1

[9] = Acute dermal toxicity (OECD 402) in Wistar rats
[10] = rat, in vivo
[11] = target: T5, PI-3-K γ (Homo sapiens, UniProt P48736); assay: Cell-free kinase assay PI-3-K γ; format: biochemical
T5 construct: purchased Promega Corporation V1690
Experimental: as §1

[12] = system: HCT-116; assay: MTT cell viability assay HCT-116; format: cell-based, human; conditions: Homo sapiens, HCT-116, 48 h
Experimental: as §2

[13] = system: MCF-7; assay: MTT cell viability assay MCF-7; format: cell-based, human; conditions: Homo sapiens, MCF7, 48 h
Experimental: as §2

T1 sequence (P49841 whole entry): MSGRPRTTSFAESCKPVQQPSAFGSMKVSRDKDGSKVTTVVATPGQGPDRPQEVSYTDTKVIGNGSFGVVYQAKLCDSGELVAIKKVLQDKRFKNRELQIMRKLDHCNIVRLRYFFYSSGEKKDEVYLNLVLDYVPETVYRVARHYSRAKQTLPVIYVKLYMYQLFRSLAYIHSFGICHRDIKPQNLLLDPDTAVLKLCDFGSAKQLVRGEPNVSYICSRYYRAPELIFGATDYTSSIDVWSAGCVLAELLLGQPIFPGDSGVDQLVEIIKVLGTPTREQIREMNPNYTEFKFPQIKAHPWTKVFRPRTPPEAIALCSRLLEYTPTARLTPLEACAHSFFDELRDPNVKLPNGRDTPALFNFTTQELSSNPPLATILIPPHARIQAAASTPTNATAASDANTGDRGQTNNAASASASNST
T4 sequence (P08069 31-1367): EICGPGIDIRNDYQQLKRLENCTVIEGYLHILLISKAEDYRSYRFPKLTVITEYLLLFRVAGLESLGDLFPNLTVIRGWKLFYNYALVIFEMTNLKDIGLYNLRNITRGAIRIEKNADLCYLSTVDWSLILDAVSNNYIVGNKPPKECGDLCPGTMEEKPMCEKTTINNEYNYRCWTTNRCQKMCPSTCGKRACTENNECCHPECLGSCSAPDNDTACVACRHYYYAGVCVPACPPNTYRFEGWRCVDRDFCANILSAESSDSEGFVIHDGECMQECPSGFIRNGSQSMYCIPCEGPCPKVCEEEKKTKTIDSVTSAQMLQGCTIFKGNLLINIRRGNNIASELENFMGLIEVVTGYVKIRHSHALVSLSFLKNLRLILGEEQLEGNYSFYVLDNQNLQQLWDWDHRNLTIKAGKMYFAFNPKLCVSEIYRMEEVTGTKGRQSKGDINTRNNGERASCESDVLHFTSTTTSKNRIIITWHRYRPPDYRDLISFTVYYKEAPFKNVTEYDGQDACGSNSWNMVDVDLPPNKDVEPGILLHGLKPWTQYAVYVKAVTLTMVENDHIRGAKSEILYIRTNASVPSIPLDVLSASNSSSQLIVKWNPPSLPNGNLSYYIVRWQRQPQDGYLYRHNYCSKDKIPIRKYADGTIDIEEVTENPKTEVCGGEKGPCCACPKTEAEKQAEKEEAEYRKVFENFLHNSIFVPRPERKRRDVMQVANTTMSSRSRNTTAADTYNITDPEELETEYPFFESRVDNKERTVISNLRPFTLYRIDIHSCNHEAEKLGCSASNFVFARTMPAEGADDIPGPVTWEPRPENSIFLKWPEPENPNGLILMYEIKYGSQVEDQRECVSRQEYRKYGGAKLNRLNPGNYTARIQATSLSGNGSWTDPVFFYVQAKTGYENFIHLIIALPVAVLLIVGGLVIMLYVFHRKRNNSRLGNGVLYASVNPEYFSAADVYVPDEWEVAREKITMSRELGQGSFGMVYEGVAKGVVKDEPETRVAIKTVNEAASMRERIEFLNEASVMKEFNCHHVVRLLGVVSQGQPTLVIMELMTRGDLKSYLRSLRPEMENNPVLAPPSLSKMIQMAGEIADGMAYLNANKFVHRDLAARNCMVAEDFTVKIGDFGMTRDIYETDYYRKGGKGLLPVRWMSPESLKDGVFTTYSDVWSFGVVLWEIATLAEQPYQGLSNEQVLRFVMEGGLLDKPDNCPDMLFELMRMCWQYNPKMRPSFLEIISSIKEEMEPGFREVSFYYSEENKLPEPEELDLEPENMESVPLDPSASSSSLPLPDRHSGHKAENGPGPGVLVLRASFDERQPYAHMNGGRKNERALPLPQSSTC
T5 sequence (P48736 whole entry): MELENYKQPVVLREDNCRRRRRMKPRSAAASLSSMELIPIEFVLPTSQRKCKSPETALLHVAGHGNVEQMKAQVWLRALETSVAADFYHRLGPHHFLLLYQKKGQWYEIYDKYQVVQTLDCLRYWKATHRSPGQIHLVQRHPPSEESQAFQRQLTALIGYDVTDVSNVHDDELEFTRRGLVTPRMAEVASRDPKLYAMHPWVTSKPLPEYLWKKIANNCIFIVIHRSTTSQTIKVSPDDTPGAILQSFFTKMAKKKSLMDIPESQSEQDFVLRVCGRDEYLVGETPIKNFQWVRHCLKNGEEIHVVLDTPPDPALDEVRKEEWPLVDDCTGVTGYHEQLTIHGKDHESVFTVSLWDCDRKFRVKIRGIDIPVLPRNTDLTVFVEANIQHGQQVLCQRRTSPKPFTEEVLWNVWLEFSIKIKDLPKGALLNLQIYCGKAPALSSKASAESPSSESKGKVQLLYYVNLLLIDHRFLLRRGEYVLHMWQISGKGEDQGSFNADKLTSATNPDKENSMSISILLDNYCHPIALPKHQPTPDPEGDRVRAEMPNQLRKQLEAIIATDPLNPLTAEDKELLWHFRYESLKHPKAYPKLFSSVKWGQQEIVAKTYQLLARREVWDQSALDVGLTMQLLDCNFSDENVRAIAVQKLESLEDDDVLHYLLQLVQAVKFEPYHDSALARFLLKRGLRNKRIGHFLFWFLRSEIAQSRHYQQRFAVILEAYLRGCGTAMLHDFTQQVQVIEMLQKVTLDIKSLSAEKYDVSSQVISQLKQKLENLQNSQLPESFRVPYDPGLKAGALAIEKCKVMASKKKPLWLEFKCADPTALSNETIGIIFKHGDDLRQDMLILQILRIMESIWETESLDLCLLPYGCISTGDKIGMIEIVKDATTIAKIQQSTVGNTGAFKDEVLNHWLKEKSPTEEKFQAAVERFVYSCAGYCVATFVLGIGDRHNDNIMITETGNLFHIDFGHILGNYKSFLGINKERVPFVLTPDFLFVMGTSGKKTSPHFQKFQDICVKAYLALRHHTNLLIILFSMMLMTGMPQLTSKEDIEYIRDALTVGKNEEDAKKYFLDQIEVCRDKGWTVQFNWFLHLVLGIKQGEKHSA
T3 sequence (Q12809 whole entry): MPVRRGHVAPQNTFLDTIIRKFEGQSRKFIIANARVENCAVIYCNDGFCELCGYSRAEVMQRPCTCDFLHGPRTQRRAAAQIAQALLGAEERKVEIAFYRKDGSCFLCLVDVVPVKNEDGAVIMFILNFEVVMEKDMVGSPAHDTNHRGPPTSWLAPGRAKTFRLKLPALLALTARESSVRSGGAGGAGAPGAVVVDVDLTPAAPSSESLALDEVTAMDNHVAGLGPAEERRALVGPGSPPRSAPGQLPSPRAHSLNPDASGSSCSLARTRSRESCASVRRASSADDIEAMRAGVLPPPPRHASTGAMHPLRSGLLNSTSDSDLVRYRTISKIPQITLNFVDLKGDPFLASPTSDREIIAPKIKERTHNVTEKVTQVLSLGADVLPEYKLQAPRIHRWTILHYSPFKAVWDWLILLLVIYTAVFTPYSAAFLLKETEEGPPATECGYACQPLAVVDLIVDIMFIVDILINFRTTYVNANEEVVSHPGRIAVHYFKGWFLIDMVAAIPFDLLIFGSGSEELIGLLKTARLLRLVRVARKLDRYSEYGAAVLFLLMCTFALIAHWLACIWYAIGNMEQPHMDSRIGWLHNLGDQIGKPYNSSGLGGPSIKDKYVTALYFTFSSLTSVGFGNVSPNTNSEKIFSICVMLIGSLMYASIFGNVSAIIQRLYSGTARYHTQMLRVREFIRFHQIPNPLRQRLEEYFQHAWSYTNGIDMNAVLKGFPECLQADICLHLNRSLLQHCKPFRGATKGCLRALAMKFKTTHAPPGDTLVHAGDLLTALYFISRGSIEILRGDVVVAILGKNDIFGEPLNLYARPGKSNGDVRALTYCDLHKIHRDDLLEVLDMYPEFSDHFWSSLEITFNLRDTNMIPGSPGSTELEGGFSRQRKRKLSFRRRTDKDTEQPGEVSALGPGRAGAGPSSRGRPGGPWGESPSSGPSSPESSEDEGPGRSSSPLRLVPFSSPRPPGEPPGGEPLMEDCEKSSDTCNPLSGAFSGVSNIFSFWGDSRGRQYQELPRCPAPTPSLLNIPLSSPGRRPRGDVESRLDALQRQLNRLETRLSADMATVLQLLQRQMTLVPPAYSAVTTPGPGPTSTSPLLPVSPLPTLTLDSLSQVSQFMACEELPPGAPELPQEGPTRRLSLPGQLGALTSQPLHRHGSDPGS

With CCS(=O)(=O)N1CC(CC#N)(n2cc(-c3ncnc4[nH]ccc34)cn2)C1 [Baricitinib, baricitinib, reference compound] the “Weight of nude mice (NU/J Foxn1nu)” value ([1]; 0.02 mg/kg, DAY 1) was 17.9 and 18.3 and 18.5 and 18.7 and 19.2, the “Weight of nude mice (NU/J Foxn1nu)” value ([1]; 0.02 mg/kg, DAY 7) was 19.4 and 19.8 and 20.2 and 20.4 and 20.7 and the “Weight of nude mice (NU/J Foxn1nu)” value ([1]; 0.02 mg/kg, DAY 14) was 21.2 and 21.3 and 21.7 and 22.1 and 22.5. The “Weight of nude mice (NU/J Foxn1nu)” value ([1]; 0.02 mg/kg, DAY 21) was 22.6 and 22.8 and 23.2 and 24.2 and 24.4, the “Weight of nude mice (NU/J Foxn1nu)” value ([1]; 0.02 mg/kg, DAY 28) was 24.3 and 24.8 and 24.9 and 25.8 and 26.2 and the “Weight of nude mice (NU/J Foxn1nu)” value ([1]; 0.04 mg/kg, DAY 1) was 17.9 and 18.5 and 18.6 and 18.7 and 19.1. For the same molecule, the “Weight of nude mice (NU/J Foxn1nu)” value ([1]; 0.04 mg/kg, DAY 7) was 19.2 and 19.8 and 20.1 (2×) and 20.5, the “Weight of nude mice (NU/J Foxn1nu)” value ([1]; 0.04 mg/kg, DAY 14) was 20.8 and 20.9 and 21.4 and 21.5 and 21.8 and the “Weight of nude mice (NU/J Foxn1nu)” value ([1]; 0.04 mg/kg, DAY 21) was 22.4 and 22.6 and 23.1 and 23.3 and 23.5. For the same molecule, the “Weight of nude mice (NU/J Foxn1nu)” value ([1]; 0.04 mg/kg, DAY 28) was 24.6 and 24.8 and 25.3 and 25.4 and 25.7, the “Weight of nude mice (NU/J Foxn1nu)” value ([1]; 0.1 mg/kg, DAY 1) was 18.5 and 18.6 and 18.7 and 19.3 and 18.8 and the “Weight of nude mice (NU/J Foxn1nu)” value ([1]; 0.1 mg/kg, DAY 7) was 19.7 and 19.8 and 21.1 and 20.1 and 20.4. The “Weight of nude mice (NU/J Foxn1nu)” value ([1]; 0.1 mg/kg, DAY 14) was 21.3 and 22.9 and 21.8 and 22.1, the “Weight of nude mice (NU/J Foxn1nu)” value ([1]; 0.1 mg/kg, DAY 21) was 22.6 and 23.2 and 24.3 and 23.6 and 23.8 and the “Weight of nude mice (NU/J Foxn1nu)” value ([1]; 0.1 mg/kg, DAY 28) was 25.3 and 24.8 and 25.7 and 25.8 and 25.4.
For Fc1ccc(-c2cnc3[nH]cc(-c4ccnc(NC5CC5)n4)c3c2)cc1 [MJ04], the “Fold of selectivity vs. JAK3” value ([2]; GSK-3-β) was 908, the IC50 ([2]; Km ATP) was 1.84 µM and the “Fold of selectivity vs. JAK3” value ([3]; EGFR) was 1609. The IC50 ([3]; Km ATP) was 3.27 µM, the “safety ratio (IC50 against HEK293 normal cell line versus IC50 in A549 cancer cell line)” value [4] was about 26 and the IC50 ([4]; Homo sapiens, HEK293, read-out: IC50 HEK-293, MTT, 48 h, normal cell line) was over 100 µM. The “stability in the formulation used for animal experiments” value [5] was “stable”, the “mortality or clinical signs of toxicity” value ([6]; single dose 0.04 mg/kg) was “no mortality or clinical signs of toxicity” and the “skin irritation/corrosion, mortality or clinical signs of toxicity” value ([6]; single dose 0.08 mg/kg, 14 days, 0.08 mg/kg) was “no skin irritation/corrosion, mortality or clinical signs of toxicity”. The “reduction of hERG outward tail current” value ([7]; 10 μM) was 7.1 ± 2%, the “inhibitory effect on hERG, fold less than that of Tofacitinib” value ([7]; highest concentration tested (30 μM)) was ~ 2.5 fold and the “Fold of selectivity vs. JAK3” value ([8]; IGF-1R) was 476. The IC50 ([8]; Km ATP) was 0.967 µM, the “mortality and clinical signs of toxicity” value ([9]; 2000 mg/kg body weight, single dermal dose, 14 days) was “no mortality and clinical signs of toxicity” and the LD50 at 14 days ([9]; Wistar, rat, in vivo, topical or ocular) was over 2000 mg/kg. For the same molecule, the “Globally Harmonized Classification System (GHS) category” value ([10]; Wistar, 14 days) was “Category-5”, the ALB ([10]; 2000 mg/kg) was 4.37 ± 2.09 g/dL and the ALP ([10]; 2000 mg/kg) was 380.33 ± 161.30 U/L. For the same molecule, the ALT ([10]; 2000 mg/kg) was 77.33 ± 3.93 U/L, the AST ([10]; 2000 mg/kg) was 183.63 ± 16.64 U/L and the BUN ([10]; 2000 mg/kg) was 13.99 ± 2.92 mg/dL. The CR ([10]; 2000 mg/kg) was 0.71 ± 0.18 mg/dL, the Ca ([10]; 2000 mg/kg) was 11.90 ± 0.36 mg/dL and the GLB ([10]; 2000 mg/kg) was 3.21 ± 0.09. The Glucose ([10]; 2000 mg/kg) was 91.13 ± 17.80 mg/dL, the Na ([10]; 2000 mg/kg) was 145.57 ± 1.71 mM and the P ([10]; 2000 mg/kg) was 4.84 ± 1.10 mg/dL. The TB ([10]; 2000 mg/kg) was 0.11 ± 0.03 mg/dL, the TG ([10]; 2000 mg/kg) was 75.33 ± 8.33 mg/dL and the TP ([10]; 2000 mg/kg) was 7.05 ± 0.25 g/dL. For the same molecule, the Urea ([10]; 2000 mg/kg) was 36.57 ± 8.43 mg/dL, the IC50 ([11]; Km ATP) was 3.67 µM and the “Fold of selectivity vs. JAK3” value ([11]; PI-3-K γ) was 1806. The IC50 [12] was 2.6 µM and the IC50 [13] was 4.47 µM.
